Results as given in US20250215039A1, “NUCLEOSIDES FOR TREATING CANCER” (PRIMEFOUR THERAPEUTICS, INC., priority 2022, published 2025).
Read-outs that look alike come from different tables or passages of the source.

System: cancer cell lines
Assay: Cancer cell proliferation activity (CellTiterGlo, 72 h)
Assay type: cell-based
Conditions: 72 h, 72 h, read-out: IC50
Method: Dose response relationships on cell proliferation was assessed for representative Compounds of the Disclosure on cancer cell lines. Briefly, compound treatment of cells started one day after seeding with a final DMSO concentration of 0.1%, and was performed by nanodrop-dispensing using a Tecan Dispenser. 0.1% DMSO (solvent) and Staurosporine (10 μM) served as high control (100% viability) and low control (0% viability), respectively.
Cells were cultured in the appropriate media. For the assays, cells were seeded in white cell culture-treated flat and clear bottom multiwell plates and incubated at 37° C. overnight before compound was added. After incubation for 72 h at 37° C. at 5% or 10% CO2 dependent on the medium, cell plates were equilibrated to room temperature for one hour, CellTiterGlo reagent (Promega) was added and luminescence was measured approximately an hour later using a luminometer.
Raw data were converted into percent cell viability relative to the high and low control, which were set to 100% and 0%, respectively.
The IC50 values are summarized in Tables 9A-1, Table 10A, and Table 10B.

IC50 (5637 cell line (bladder)): 1 µM
IC50 (CLS439 cell line (bladder)): > 50 µM
IC50 (HS729 cell line (muscle)): 1.36 µM
IC50 (HSS78T cell line): 0.82 µM
IC50 (JAR cell line (placenta)): 0.46 µM
IC50 (SKMELS cell line): > 50 µM
IC50 (Homo sapiens, 22Rv1, 72 h, 22RV1 cell line (prostate)): 1.57 µM
IC50 (Homo sapiens, 786-0, 72 h, 786O cell line (kidney)): 0.52 µM
IC50 (Homo sapiens, A204, 72 h, A204 cell line (muscle)): 0.29 µM
IC50 (Homo sapiens, A549, 72 h, A549 cell line): > 50 µM
IC50 (Homo sapiens, A673, 72 h, A673 cell line (bone)): 2.31 µM
IC50 (Homo sapiens, A2780, 72 h, A2780 cell line (ovary)): 1.26 µM
IC50 (Homo sapiens, A-375, 72 h, A375 cell line (skin)): 0.26 µM
IC50 (Homo sapiens, A-431, 72 h, A431 cell line (skin)): 0.34 µM
IC50 (Homo sapiens, ACHN, ACHN cell line (kidney)): 3.3 µM
IC50 (Homo sapiens, ASPC1, 72 h, ASPC1 cell line (pancreas)): 0.42 µM
IC50 (Homo sapiens, BT-20, 72 h, BT20 cell line (breast)): 0.52 µM
IC50 (Homo sapiens, BXPC-3, 72 h, BXPC3 cell line (pancreas)): > 50 µM
IC50 (Homo sapiens, C-33-A, C33A cell line (cervical)): 1.79 µM
IC50 (Homo sapiens, CAKI-1, 72 h, CAKI1 cell line (kidney)): 0.03 µM
IC50 (Homo sapiens, COLO 205, 72 h, COLO205 cell line (colon)): 1.3 µM
IC50 (Homo sapiens, COLO-678, 72 h, COLO678 cell line (colon)): 5.81 µM
IC50 (Homo sapiens, Ca-Ski, CASKI cell line (cervical)): 0.26 µM
IC50 (Homo sapiens, Caco-2, 72 h, CACO2 cell line (colon)): 0.72 µM
IC50 (Homo sapiens, Calu-6, 72 h, CALU6 cell line (lung)): 0.61 µM
IC50 (Homo sapiens, DLD-1, 72 h, DLD1 cell line (colon)): 1.98 µM
IC50 (Homo sapiens, DU-145, 72 h, DU145 cell line (prostate)): 0.12 µM
IC50 (Homo sapiens, EFO-21, 72 h, EFO21 cell line (ovary)): 0.57 µM
IC50 (Homo sapiens, EJ-28, 72 h, EJ28 cell line (bladder)): 0.56 µM
IC50 (Homo sapiens, Granta-519, 72 h, GRANTA-519 cell line (hematological)): 1.03 µM
IC50 (Homo sapiens, HCT-15, 72 h, HCT15 cell line (colon)): 1.81 µM
IC50 (Homo sapiens, HCT-116, 72 h, HCT116 cell line (colon)): 0.93 µM
IC50 (Homo sapiens, HEK293, 72 h, HEK293 cell line (kidney)): 0.74 µM
IC50 (Homo sapiens, HL-60, 72 h, HL-60 cell line (hematological)): 0.52 µM
IC50 (Homo sapiens, HT-29, 72 h, HT29 cell line (colon)): 0.42 µM
IC50 (Homo sapiens, HT-1080, 72 h, HT1080 cell line (connective tissue)): > 50 µM
IC50 (Homo sapiens, HeLa, HELA cell line (cervical)): 0.55 µM
IC50 (Homo sapiens, HepG2, 72 h, HEPG2 cell line (liver)): 0.79 µM
IC50 (Homo sapiens, IGROV-1, 72 h, IGROV1 cell line (ovary)): 0.43 µM
IC50 (Homo sapiens, IMR-90, 72 h, IMR.90 cell line): 0.91 µM
IC50 (Homo sapiens, J82, 72 h, J82 cell line (bladder)): 0.54 µM
IC50 (Homo sapiens, JEG-3, 72 h, JEG3 cell line (placenta)): 0.37 µM
IC50 (Homo sapiens, JIMT-1, 72 h, JIMT1 cell line (breast)): 0.07 µM
IC50 (Homo sapiens, K562, 72 h, K-562 cell line (hematological)): > 50 µM
IC50 (Homo sapiens, Kasumi 1, 72 h, KASUMI-1 cell line (hematological)): 0.06 µM
IC50 (Homo sapiens, L-363, 72 h, L-363 cell line (hematological)): 0.69 µM
IC50 (Homo sapiens, LoVo, LOVO cell line (colon)): 0.26 µM
IC50 (Homo sapiens, MCF7, 72 h, MCF7 cell line (breast)): > 50 µM
IC50 (Homo sapiens, MDA-MB-231, 72 h, MDAMB231 cell line (breast)): 2.69 µM
IC50 (Homo sapiens, MDA-MB-435, 72 h, MDAMB435 cell line (skin)): 1.25 µM
IC50 (Homo sapiens, MDA-MB-436, 72 h, MDAMB436 cell line (breast)): 0.25 µM
IC50 (Homo sapiens, MDA-MB-468, 72 h, MDAMB468 cell line (breast)): 0.79 µM
IC50 (Homo sapiens, MG-63, 72 h, MG63 cell line (bone)): > 50 µM
IC50 (Homo sapiens, MHH-ES-1, 72 h, MHHES1 cell line (bone)): 0.86 µM
IC50 (Homo sapiens, MIA PaCa-2, 72 h, MIAPACA2 cell line (pancreas)): > 50 µM
IC50 (Homo sapiens, MINO, MINO cell line (hematological)): 0.12 µM
IC50 (Homo sapiens, MV4-11, 72 h, MV4-11 cell line (hematological)): 0.07 µM
IC50 (Homo sapiens, NCI-H23, 72 h, NCI-H23 cell line (lung)): 0.48 µM
IC50 (Homo sapiens, NCI-H82, 72 h, NCIH82 cell line (lung)): 0.61 µM
IC50 (Homo sapiens, NCI-H292, 72 h, NCIH292 cell line (lung)): 5.31 µM
IC50 (Homo sapiens, NCI-H460, 72 h, NCIH460 cell line (lung)): 0.62 µM
IC50 (Homo sapiens, OVCAR-3, 72 h, OVCAR3 cell line (ovary)): 0.14 µM
IC50 (Homo sapiens, OVCAR-4, 72 h, OVCAR4 cell line (ovary)): 0.74 µM
IC50 (Homo sapiens, PANC-1, 72 h, PANC1 cell line (pancreas)): > 50 µM
IC50 (Homo sapiens, PC-3, 72 h, PC3 cell line (prostate)): 1.09 µM
IC50 (Homo sapiens, PLC-PRF-5, 72 h, PLCPRF5 cell line (liver)): 2.16 µM
IC50 (Homo sapiens, Panc1005, 72 h, PANC1005 cell line (pancreas)): 0.24 µM
IC50 (Homo sapiens, RD, RD cell line (muscle)): 2.32 µM
IC50 (Homo sapiens, Ramos, RAMOS cell line (hematological)): 0.56 µM
IC50 (Homo sapiens, SAOS-2, 72 h, SAOS2 cell line (bone)): 0.27 µM
IC50 (Homo sapiens, SF-268, 72 h, SF268 cell line (brain)): > 50 µM
IC50 (Homo sapiens, SF-295, 72 h, SF295 cell line (brain)): 1.94 µM
IC50 (Homo sapiens, SK-BR-3, 72 h, SKBR3 cell line (breast)): 0.1 µM
IC50 (Homo sapiens, SK-HEP1, 72 h, SKHEP1 cell line (liver)): 4.78 µM
IC50 (Homo sapiens, SK-LMS-1, 72 h, SKLMS1 cell line (uterus)): 0.6 µM
IC50 (Homo sapiens, SK-MEL-28, 72 h, SKMEL28 cell line (skin)): 1.18 µM
IC50 (Homo sapiens, SK-N-AS, SKNAS cell line (brain)): 0.78 µM
IC50 (Homo sapiens, SK-N-SH, SKNSH cell line (brain)): 0.64 µM
IC50 (Homo sapiens, SK-OV-3, 72 h, SKOV3 cell line (ovary)): 1.03 µM
IC50 (Homo sapiens, SNB-75, 72 h, SNB75 cell line (brain)): 2.6 µM
IC50 (Homo sapiens, SU-DHL10, 72 h, SU-DHL-10 cell line (hematological)): 0.46 µM
IC50 (Homo sapiens, SU-DHL-6, 72 h, SU-DHL-6 cell line (hematological)): 0.36 µM
IC50 (Homo sapiens, SW-620, 72 h, SW620 cell line (colon)): 0.57 µM
IC50 (Homo sapiens, T-24, 72 h, T24 cell line (bladder)): 0.92 µM
IC50 (Homo sapiens, TE-671, 72 h, TE671 cell line (muscle)): 3.14 µM
IC50 (Homo sapiens, THP-1, 72 h, THP-1 cell line (hematological)): 0.11 µM
IC50 (Homo sapiens, U2OS, U2OS cell line (bone)): 1.12 µM
IC50 (Homo sapiens, U-87 MG, U87MG cell line (brain)): 5.62 µM
IC50 (Homo sapiens, UMUC3, 72 h, UMUC3 cell line (bladder)): > 50 µM
IC50 (Homo sapiens, UO-31, 72 h, UO31 cell line (kidney)): 0.3 µM
IC50 (Homo sapiens, WSU-NHL, WSU-NHL cell line (hematological)): 0.56 µM
IC50 (MT-3, 72 h, MT3 cell line (breast)): 0.5 µM
IC50 (NCI-H358M, NCIH358M cell line (lung)): 0.3 µM
IC50 (PBMC, PBMC (hematological)): 1.99 µM
IC50 (RD-ES, RDES cell line (bone)): 0.37 µM
SMILES: C[C@]1(CO)O[C@@H](n2cnc3c(N)nc(F)nc32)C[C@@H]1O [Cpd. No. 126, (2R,3S,5R)-5-(6-amino-2-fluoro-9H-purin-9-yl)-2-(hydroxymethyl)-2-methyltetrahydrofuran-3-ol]
